Values joined by “and” are separate entries in the source; they are usually repeats but may differ in a detail not shown here. Identical values can stand only once.
Columns and labels:
rye grass [1] = assay: Pot experiments with rye grass, urea as soil fertilizer with various urease inhibitors (Table 6); type: in vivo; details: urea four times 1.0 g N/pot; inhibitor 2% of the urea quantity; loamy sand pH 5.6
Text: (§1) The results of the tests in Mitscherlich pots are compiled in Tables 6 and 7.
In Table 6 the various urease inhibitors as urea additives for soil fertilization are compared with one another. Both in overall crop yield as well as in N absorption and in raw protein content, the best results are achieved with bromo-nitro compounds. The maleic derivatives and the quinone product furnish poorer results.
(§2) The mixtures according to the invention used for the experiments of these tables were produced by powdering the urea prills with said bromo-nitro compounds; optionally, the prills can be sprayed before powdering with a hydrocarbon oil to improve adhesion. The bromo-nitro compounds soluble in liquid fertilizers containing urea pose no problems of distribution in dissolved fertilizers containing urea. In the case of slightly soluble bromo-nitro compounds, stirring must occur during the distribution. Optionally, solutizing agents can be added.

urease = type: biochemical
rye grass [2] = assay: Pot tests for rye grass, urea as soil fertilizer optionally with 2% urease inhibitors, compared with KAS (Table 7); type: in vivo; details: for N Absorption / Raw Protein % of Dry Subst / Dry Substance: 2% inhibitor where added; for Dry Substance: 5 cuttings
Procedure: as §1
In the experiments in Table 7 on rye grass, urea, with and without urease inhibitors, used as a soil fertilizer in application amounts between 0.5 and 1.0 g N/pot, was tested in comparison with KAS. As a product from the maleinimide group, Substance 64 from Table 1, i.e. N-methylmaleinimide was added; from the bromo-nitro compounds, Substance 1 of Table 2, bromo-2-nitropropyl-N-methylcarbamate was added. […] The yield of dry solids scarcely increases as the application of fertilizer increases from 0.75 to 1.0 g N both with urea fertilization alone as well as with the addition of a maleinimide compound.
as §2

[3] = tested on: spring wheat, sirocco type; assay: Pot tests with spring wheat, urea or AUS as leaf fertilizer with urease inhibitor (Table 8); type: in vivo
Text: (In the case of the test series with AUS and urea, equal quantities of N were used. The quantities of the urease inhibitors used were increased in the same way in both test series. If, however, the inhibitor material is related to the use of urea-N, this means that in the case of AUS double the quantity comes into play.)

rats = details: oral ingestion by rats; cited from earlier work
[4] = Critical relative humidity (water activity) of fertilizer solutions; type: physicochemical; details: 50% urea solution as for 100% salts; between 10° and 30° C.
[5] = AUS leaf fertilizer, inhibitor quantity 4 per 100 g urea-N
[6] = AUS leaf fertilizer, inhibitor quantity 8 per 100 g urea-N
[7] = urea solution leaf fertilizer, inhibitor quantity 2 per 100 g urea-N
[8] = urea solution leaf fertilizer, inhibitor quantity 4 per 100 g urea-N

For `CNC(=O)OCC(C)(Br)[N+](=O)[O-]` (centres unmarked) [Subst. 1-Tab. 3, 2-Bromo-2-nitro-propyl-N--methylcarbamate], the “Dry Substance 1st-5th Cutting” value (rye grass [1]) was 131.7 g/Pot, the N-absorption (rye grass [1]) was 3.29 g/Pot and the “Raw Protein % in Dry Substance” value (rye grass [1]) was 15.6%. For the same molecule, the “N losses of the soil through NH3 volatilization as % of the urea-N quantities used” value (urease) was 0.3% and 0.0%, the “N losses of the soil through NH3 volatilization calculated as % of the urea-N quantities used” value (urease) was 0.0% and 1.2% and 0.1% and the “N Absorption” value (rye grass [2]; N fertilization 0.5 g N/pot) was 1432 mg/Pot. For the same molecule, the “Raw Protein % of Dry Subst” value (rye grass [2]; N fertilization 0.5 g N/pot) was 12.62%, the “Dry Substance” value (rye grass [2]; N fertilization 0.5 g N/pot) was 70.9 g/Pot and the “N Absorption” value (rye grass [2]; N fertilization 0.75 g N/pot) was 2095 mg/Pot. For the same molecule, the “Raw Protein % of Dry Subst” value (rye grass [2]; N fertilization 0.75 g N/pot) was 16.43%, the “Dry Substance” value (rye grass [2]; N fertilization 0.75 g N/pot) was 79.7 g/Pot and the “N Absorption” value (rye grass [2]; N fertilization 1.0 g N/pot) was 2720 mg/Pot. The “Raw Protein % of Dry Subst” value (rye grass [2]; N fertilization 1.0 g N/pot) was 19.68%, the “Dry Substance” value (rye grass [2]; N fertilization 1.0 g N/pot) was 86.4 g/Pot and the “comparison of fertilizer combinations (in words)” value (rye grass [2]; urea + 2% inhibitor) was “superior to the corresponding mixture with 2% of a maleinimide compound”. The “Dry Substance” value [3, 5] was 68.68 g/pot, the N Absorption [3, 5] was 1058 mg/pot and the “Raw Protein” value [3, 5] was 9.63%. For the same molecule, the “Dry Substance” value [3, 6] was 68.69 g/pot, the N Absorption [3, 6] was 1051 mg/pot and the “Raw Protein” value [3, 6] was 9.56%. For the same molecule, the “Dry Substance” value [3, 7] was 65.11 g/pot, the N Absorption [3, 7] was 951 mg/pot and the “Raw Protein” value [3, 7] was 9.13%. The “Dry Substance” value [3, 8] was 68.36 g/pot, the N Absorption [3, 8] was 1046 mg/pot and the “Raw Protein” value [3, 8] was 9.56%.

With `CCC(Br)(COC(=O)NC)[N+](=O)[O-]` (centres unmarked) [Subst. 2-Tab. 3, 2-Bromo-2-nitro-butyl-N--methylcarbamate] the “N losses of the soil through NH3 volatilization as % of the urea-N quantities used” value (urease) was 0.5% and 0.0%.

For `O=[N+]([O-])C(Br)(CO)CO` [Subst. 3-Tab. 3, 2-Bromo-2-nitro-propan-1,3-diol], the LD50 (rats) is listed as 400 mg/kg, the “Dry Substance 1st-5th Cutting” value (rye grass [1]) is listed as 128.6 g/Pot and the N-absorption (rye grass [1]) is listed as 3.15 g/Pot. The “Raw Protein % in Dry Substance” value (rye grass [1]) was 15.3%, the “N losses of the soil through NH3 volatilization as % of the urea-N quantities used” value (urease) was 0.9% and 0.0% and the “N losses of the soil through NH3 volatilization calculated as % of the urea-N quantities used” value (urease) was 0.0% and 0.5%.

With `CC(Br)(CO)[N+](=O)[O-]` (centres unmarked) [Subst. 4-Tab. 3, 2-Bromo-2-nitro-propanol] the “Dry Substance 1st-5th Cutting” value (rye grass [1]) was 127.8 g/Pot, the N-absorption (rye grass [1]) was 3.09 g/Pot and the “Raw Protein % in Dry Substance” value (rye grass [1]) was 15.1%. The “N losses of the soil through NH3 volatilization as % of the urea-N quantities used” value (urease) was 2.1% and 0.0%.

In the case of `CC(C)(C)C(O)C(Br)[N+](=O)[O-]` (centres unmarked) [Subst. 5-Tab. 3, 1-Bromo-1-nitro-3,3.dimethyl-butane-2-ol], the “N losses of the soil through NH3 volatilization as % of the urea-N quantities used” value (urease) is reported as 4.7% and 0.0%.

For `CCCC(O)C(Br)[N+](=O)[O-]` (centres unmarked) [Subst. 6-Tab. 3, 1-Bromo-1-nitro-pentanol-2], the “N losses of the soil through NH3 volatilization as % of the urea-N quantities used” value (urease) was 6.5% and 0.0%.

For `CCC(O)C(Br)[N+](=O)[O-]` (centres unmarked) [Subst. 7-Tab. 3, 1-Bromo-1-nitro-butanol-2], the “N losses of the soil through NH3 volatilization as % of the urea-N quantities used” value (urease) was 8.3% and 0.0%.

With `CC(C)C(O)C(Br)[N+](=O)[O-]` (centres unmarked) [Subst. 8-Tab. 3, 1-Bromo-1-nitro-3-methyl-butane-2-ol] the “N losses of the soil through NH3 volatilization as % of the urea-N quantities used” value (urease) was 10.0% and 0.1%.

For `CC(O)C(Br)[N+](=O)[O-]` (centres unmarked) [Subst. 11-Tab. 3, 1-Bromo-1-nitro-propanol-2], the “N losses of the soil through NH3 volatilization as % of the urea-N quantities used” value (urease) was 2.3%.

In the case of `O=C1C2C3C=CC(C3)C2C(=O)N1SC(Cl)(Cl)Cl` (centres unmarked) [Subst. 23-Tab. 2, reference compound], the “urease inhibitor effect (in words)” value (urease) is reported as “No outstanding inhibitor effect”.

In the case of `O=C1C=CC(=O)C=C1` [Subst. 31-Tab. 1, 1,4-Benzoquinone], the “Dry Substance 1st-5th Cutting” value (rye grass [1]) is reported as 118.3 g/Pot, the N-absorption (rye grass [1]) is reported as 2.54 g/Pot and the “Raw Protein % in Dry Substance” value (rye grass [1]) is reported as 13.4%.

With `CC(=O)OCN1C(=O)C=CC1=O` [Subst. 48-Tab. 1, N--Acetoximethylmaleinimide] the “Dry Substance 1st-5th Cutting” value (rye grass [1]) was 129.7 g/Pot, the N-absorption (rye grass [1]) was 2.85 g/Pot and the “Raw Protein % in Dry Substance” value (rye grass [1]) was 13.7%. The “urease inhibitor effect (in words)” value (urease) was “best inhibitor effects”.

In the case of `CCN1C(=O)C=CC1=O` [Subst. 56-Tab. 1, N--Ethylmaleinimide, reference compound], the “urease inhibitor effect (in words)” value (urease) is reported as “best inhibitor effects”.

For `O=C1C=CC(=O)N1` [Subst. 61-Tab. 1, Maleinimide, reference compound], the “urease inhibitor effect (in words)” value (urease) was “best inhibitor effects”.

In the case of `CN1C(=O)C=CC1=O` [Subst. 64-Tab. 1, N--Methylmaleinimide, reference compound], the “urease inhibitor effect (in words)” value (urease) is reported as “best inhibitor effects”, the “N Absorption” value (rye grass [2]; N fertilization 0.5 g N/pot) is reported as 1285 mg/Pot and the “Raw Protein % of Dry Subst” value (rye grass [2]; N fertilization 0.5 g N/pot) is reported as 11.66%. The “N Absorption” value (rye grass [2]; N fertilization 0.75 g N/pot) was 1676 mg/Pot, the “Raw Protein % of Dry Subst” value (rye grass [2]; N fertilization 0.75 g N/pot) was 12.82% and the “N Absorption” value (rye grass [2]; N fertilization 1.0 g N/pot) was 1944 mg/Pot. For the same molecule, the “Raw Protein % of Dry Subst” value (rye grass [2]; N fertilization 1.0 g N/pot) was 14.84%.

In the case of `O=C1C=CC(=O)N1CO` [Subst. 66-Tab. 1, N--Methylolmaleinimide], the “Dry Substance 1st-5th Cutting” value (rye grass [1]) is reported as 125.0 g/Pot, the N-absorption (rye grass [1]) is reported as 2.85 g/Pot and the “Raw Protein % in Dry Substance” value (rye grass [1]) is reported as 14.3%. The “urease inhibitor effect (in words)” value (urease) was “best inhibitor effects”.

In the case of `O=C(Nc1ccccc1)OCN1C(=O)C=CC1=O` [Subst. 68-Tab. 1, N--Methylolmaleinimide phenyl urethane], the “Dry Substance 1st-5th Cutting” value (rye grass [1]) is reported as 124.0 g/Pot, the N-absorption (rye grass [1]) is reported as 2.83 g/Pot and the “Raw Protein % in Dry Substance” value (rye grass [1]) is reported as 14.3%.

In the case of `NC(N)=O` [urea], the “CRH value (critical relative humidity)” value [4] is reported as 75-76%.

Source: patent US4576625A, “Fertilizers containing urea with urease inhibitors” (Huls Aktiengesellschaft, priority 1983, dated 1986)
